Measurements as given in PubChem BioAssay AID1963851 (Molecular Pharmacology Branch, DTP, NCI, 2024).
pIC50: −log10 of the molar value.

Test system: 188146-221-R-J1-PDC complex spheroid viability
Experiment: Anticancer human tumor 188146-221-R-J1-PDC patient-derived colon adenocarcinoma cell line growth inhibition [POLQ]
Settings: for pIC50: curve of first compound; for viability, T/C: stronger effect = lower value; active = viability on the fitted dose curve at most 10% of control; inactive = the rest
Outline: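 Growth inhibition in 3D: complex spheroids (tumor PDC, HUVEC, MSC) treated with POLQ inhibitor combinations; where Cmax unknown, highest tested concentration 10 microM, except SN-38 at 1 microM.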

[1] = second compound 0.0316 µM, first compound 0.0316 µM
[2] = second compound 0.0316 µM, first compound 0.1 µM
[3] = second compound 0.0316 µM, first compound 0.316 µM
[4] = second compound 0.0316 µM, first compound 1 µM
[5] = second compound 0.1 µM, first compound 0.0316 µM
[6] = second compound 0.1 µM, first compound 0.1 µM
[7] = second compound 0.1 µM, first compound 0.316 µM
[8] = second compound 0.1 µM, first compound 1 µM
[9] = second compound 0.316 µM, first compound 0.0316 µM
[10] = second compound 0.316 µM, first compound 0.1 µM
[11] = second compound 0.316 µM, first compound 0.316 µM
[12] = second compound 0.316 µM, first compound 1 µM
[13] = second compound 1 µM, first compound 0.0316 µM
[14] = second compound 1 µM, first compound 0.1 µM
[15] = second compound 1 µM, first compound 0.316 µM
[16] = second compound 1 µM, first compound 1 µM
[17] = second compound 3.16 µM, first compound 0.0316 µM
[18] = second compound 3.16 µM, first compound 0.1 µM
[19] = second compound 3.16 µM, first compound 0.316 µM
[20] = second compound 3.16 µM, first compound 1 µM
[21] = second compound 10 µM, first compound 0.0316 µM
[22] = second compound 10 µM, first compound 0.1 µM
[23] = second compound 10 µM, first compound 0.316 µM
[24] = second compound 10 µM, first compound 1 µM
[25] = second compound 0.0316 µM, first compound 3.16 µM
[26] = second compound 0.0316 µM, first compound 10 µM
[27] = second compound 0.1 µM, first compound 3.16 µM
[28] = second compound 0.1 µM, first compound 10 µM
[29] = second compound 0.316 µM, first compound 3.16 µM
[30] = second compound 0.316 µM, first compound 10 µM
[31] = second compound 1 µM, first compound 3.16 µM
[32] = second compound 1 µM, first compound 10 µM
[33] = second compound 3.16 µM, first compound 3.16 µM
[34] = second compound 3.16 µM, first compound 10 µM
[35] = second compound 10 µM, first compound 3.16 µM
[36] = second compound 10 µM, first compound 10 µM
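Note: spheroids exposed to compounds for seven days.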
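Throughout, for viability, T/C: 100% = DMSO vehicle control viability.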

CCc1c2c(nc3ccc(O)cc13)-c1cc3c(c(=O)n1C2)COC(=O)[C@]3(O)CC + Nc1ccc(C#CCN(C(=O)Cc2ncc(C(F)(F)F)cc2C(F)(F)F)c2ccc(F)cc2)nn1
active: viability, T/C [4] 7.87% | viability, T/C [12] 8.23%
7.58: pIC50 (second compound 3.16 µM)
7.60: pIC50 (second compound 0.1 µM)
7.63: pIC50 (second compound 1 µM) | pIC50 (second compound 10 µM)
inactive: viability, T/C (second compound 0.0316 µM, first compound 0.00316 µM) 94.7% | viability, T/C (second compound 0.0316 µM, first compound 0.01 µM) 69.8% | viability, T/C [1] 35% | viability, T/C [2] 20.9% | viability, T/C [3] 12.5% | viability, T/C (second compound 0.1 µM, first compound 0.00316 µM) 101% | viability, T/C (second compound 0.1 µM, first compound 0.01 µM) 81.1% | viability, T/C [5] 42.1% | viability, T/C [6] 18.5% | viability, T/C [7] 13.3% | viability, T/C [8] 10.1% | viability, T/C (second compound 0.316 µM, first compound 0.00316 µM) 100% | viability, T/C (second compound 0.316 µM, first compound 0.01 µM) 73.1% | viability, T/C [9] 35.9% | viability, T/C [10] 18.3% | viability, T/C [11] 12.4% | viability, T/C (second compound 1 µM, first compound 0.00316 µM) 88.9% | viability, T/C (second compound 1 µM, first compound 0.01 µM) 77.8% | viability, T/C [13] 37.7% | viability, T/C [14] 22.3% | viability, T/C [15] 13.7% | viability, T/C [16] 8.08% | viability, T/C (second compound 3.16 µM, first compound 0.00316 µM) 90.5% | viability, T/C (second compound 3.16 µM, first compound 0.01 µM) 89.7% | viability, T/C [17] 42.2% | viability, T/C [18] 19.3% | viability, T/C [19] 12.6% | viability, T/C [20] 8.98% | viability, T/C (second compound 10 µM, first compound 0.00316 µM) 98.6% | viability, T/C (second compound 10 µM, first compound 0.01 µM) 75.3% | viability, T/C [21] 38.9% | viability, T/C [22] 22.6% | viability, T/C [23] 15.7% | viability, T/C [24] 8.14%
7.68: pIC50 (second compound 0.316 µM)
7.70: pIC50 (second compound 0.0316 µM)

COc1cc(C2c3cc4c(cc3C(OC3OC5COC(C)OC5C(O)C3O)C3COC(=O)C23)OCO4)cc(OC)c1O (stereo unspecified) + Nc1ccc(C#CCN(C(=O)Cc2ncc(C(F)(F)F)cc2C(F)(F)F)c2ccc(F)cc2)nn1
6.24: pIC50 (second compound 0.316 µM)
6.10: pIC50 (second compound 0.1 µM)
inactive: viability, T/C [1] 87.2% | viability, T/C [2] 95.2% | viability, T/C [3] 61.4% | viability, T/C [4] 40.7% | viability, T/C [25] 24.9% | viability, T/C [26] 22.9% | viability, T/C [5] 89.5% | viability, T/C [6] 87.3% | viability, T/C [7] 65.9% | viability, T/C [8] 48.2% | viability, T/C [27] 27.7% | viability, T/C [28] 28.5% | viability, T/C [9] 97.1% | viability, T/C [10] 97.8% | viability, T/C [11] 66.3% | viability, T/C [12] 35.5% | viability, T/C [29] 25% | viability, T/C [30] 21.4% | viability, T/C [13] 97.5% | viability, T/C [14] 79.3% | viability, T/C [15] 67.6% | viability, T/C [16] 39.4% | viability, T/C [31] 24.6% | viability, T/C [32] 22.2% | viability, T/C [17] 100% | viability, T/C [18] 88.5% | viability, T/C [19] 64.2% | viability, T/C [20] 40.7% | viability, T/C [33] 27.1% | viability, T/C [34] 25% | viability, T/C [21] 86.8% | viability, T/C [22] 78.4% | viability, T/C [23] 58.8% | viability, T/C [24] 47.4% | viability, T/C [35] 25% | viability, T/C [36] 29%
6.22: pIC50 (second compound 0.0316 µM)
6.20: pIC50 (second compound 1 µM) | pIC50 (second compound 3.16 µM) | pIC50 (second compound 10 µM)

Nc1ccn(C2OC(CO)C(O)C2(F)F)c(=O)n1 (stereo unspecified) + Nc1ccc(C#CCN(C(=O)Cc2ncc(C(F)(F)F)cc2C(F)(F)F)c2ccc(F)cc2)nn1
> 7.50: pIC50 (second compound 0.0316 µM) | pIC50 (second compound 0.1 µM) | pIC50 (second compound 0.316 µM) | pIC50 (second compound 1 µM) | pIC50 (second compound 3.16 µM) | pIC50 (second compound 10 µM)
inactive: viability, T/C [1] 27.5% | viability, T/C [2] 18% | viability, T/C [3] 17.3% | viability, T/C [4] 17.3% | viability, T/C [25] 17.6% | viability, T/C [26] 12.2% | viability, T/C [5] 33.5% | viability, T/C [6] 18% | viability, T/C [7] 18.8% | viability, T/C [8] 15.2% | viability, T/C [27] 15.3% | viability, T/C [28] 16.1% | viability, T/C [9] 32.9% | viability, T/C [10] 17.4% | viability, T/C [11] 15.9% | viability, T/C [12] 16.3% | viability, T/C [29] 16.4% | viability, T/C [30] 15.9% | viability, T/C [13] 30.1% | viability, T/C [14] 17.6% | viability, T/C [15] 18% | viability, T/C [16] 16.6% | viability, T/C [31] 19% | viability, T/C [32] 14.2% | viability, T/C [17] 27.4% | viability, T/C [18] 19.8% | viability, T/C [19] 15.3% | viability, T/C [20] 17.1% | viability, T/C [33] 16.6% | viability, T/C [34] 15.4% | viability, T/C [21] 40.4% | viability, T/C [22] 23.2% | viability, T/C [23] 20.3% | viability, T/C [24] 19.1% | viability, T/C [35] 19.4% | viability, T/C [36] 14.9%
